EP4745135A1 (Gluetacs Therapeutics (Shanghai) Co., Ltd., priority 2023, dated 2025)

What was measured:
CK1α = biological target: T1, CK1α (Homo sapiens, UniProt P48729+Q96SW2); assay: Western blot, degradation of substrate protein in hPBMCs; assay type: cell-based
T1 construct: effects of the compounds of the present disclosure on the expression of target proteins in cells; endogenous in cells; host or cells: human PBMCs (Milecell Biotechnologies)

IKZF1 = biological target: T2, IKZF1 (Homo sapiens, UniProt Q13422+Q96SW2); assay: as above; assay type: cell-based
T2 construct: effects of the compounds of the present disclosure on the expression of target proteins in cells; endogenous in cells; host or cells: human PBMCs (Milecell Biotechnologies)

IKZF2 = biological target: T3, IKZF2 (Homo sapiens, UniProt Q96SW2+Q9UKS7); assay: as above; assay type: cell-based
T3 construct: effects of the compounds of the present disclosure on the expression of target proteins in cells; endogenous in cells; host or cells: human PBMCs (Milecell Biotechnologies)

IKZF3 = biological target: T4, IKZF3 (Homo sapiens, UniProt Q96SW2+Q9UKT9); assay: as above; assay type: cell-based
T4 construct: effects of the compounds of the present disclosure on the expression of target proteins in cells; endogenous in cells; host or cells: human PBMCs (Milecell Biotechnologies)

WEE1 = biological target: T5, WEE1 (Homo sapiens, UniProt P30291+Q96SW2); assay: as above; assay type: cell-based
T5 construct: effects of the compounds of the present disclosure on the expression of target proteins in cells; endogenous in cells; host or cells: human PBMCs (Milecell Biotechnologies)

GSPT1 = assay: as above; assay type: cell-based, Human
[1] = biological target: T6, human Cereblon WT GST-tagged protein (Homo sapiens, UniProt Q96SW2); assay: CRBN-binding affinity, HTRF (CEREBLON BINDING kit); conditions: for inhibition at 0.5 µM: read-out: Inhibition Rate at 0.5 µM (%); for inhibition at 2 µM: read-out: Inhibition Rate at 2 µM (%)
T6 construct: purchased CISBIO 64BDCRBNPEH

[2] = test system: Human multiple myeloma cell (MM.1S); assay: Tumor cell proliferation inhibition (CellTiter-Meiluncell luminescent cell viability assay); conditions: for inhibition at 0.01 µM / inhibition at 0.5 µM: Homo sapiens, MM1.S, 96 h; for inhibition at 0.01 µM: read-out: Inhibition Rate at 10 nM (%); for inhibition at 0.5 µM: read-out: Inhibition Rate at 500 nM (%)
[3] = test system: Human myeloid monocytic leukemia cell (MV-4-11); assay: as above; conditions: MV4-11, 96 h; for inhibition at 0.01 µM: read-out: Inhibition Rate at 10 nM (%); for inhibition at 0.5 µM: read-out: Inhibition Rate at 500 nM (%)
[4] = Western blot, 24 hours of compound treatment, compounds tested at 50 nM and 500 nM (concentration for the table not stated)
[5] = 24 hours treatment, compounds at 50 nM and 500 nM (concentration behind the class not stated)

T2 sequence (Q13422 whole entry): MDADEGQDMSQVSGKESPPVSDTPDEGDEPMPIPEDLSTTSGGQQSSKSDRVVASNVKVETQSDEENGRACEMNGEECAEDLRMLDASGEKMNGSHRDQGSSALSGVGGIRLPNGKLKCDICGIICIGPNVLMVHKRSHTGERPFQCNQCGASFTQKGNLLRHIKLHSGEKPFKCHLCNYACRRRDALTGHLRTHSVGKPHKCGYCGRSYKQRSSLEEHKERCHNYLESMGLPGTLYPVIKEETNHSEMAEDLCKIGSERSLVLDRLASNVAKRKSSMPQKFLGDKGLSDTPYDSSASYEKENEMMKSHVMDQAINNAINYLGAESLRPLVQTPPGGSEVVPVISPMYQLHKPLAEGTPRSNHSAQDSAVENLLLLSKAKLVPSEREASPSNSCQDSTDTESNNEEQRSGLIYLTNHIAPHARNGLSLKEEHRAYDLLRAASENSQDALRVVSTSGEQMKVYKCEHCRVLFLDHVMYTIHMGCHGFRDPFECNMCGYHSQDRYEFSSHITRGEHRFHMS
T2 sequence (Q96SW2 whole entry): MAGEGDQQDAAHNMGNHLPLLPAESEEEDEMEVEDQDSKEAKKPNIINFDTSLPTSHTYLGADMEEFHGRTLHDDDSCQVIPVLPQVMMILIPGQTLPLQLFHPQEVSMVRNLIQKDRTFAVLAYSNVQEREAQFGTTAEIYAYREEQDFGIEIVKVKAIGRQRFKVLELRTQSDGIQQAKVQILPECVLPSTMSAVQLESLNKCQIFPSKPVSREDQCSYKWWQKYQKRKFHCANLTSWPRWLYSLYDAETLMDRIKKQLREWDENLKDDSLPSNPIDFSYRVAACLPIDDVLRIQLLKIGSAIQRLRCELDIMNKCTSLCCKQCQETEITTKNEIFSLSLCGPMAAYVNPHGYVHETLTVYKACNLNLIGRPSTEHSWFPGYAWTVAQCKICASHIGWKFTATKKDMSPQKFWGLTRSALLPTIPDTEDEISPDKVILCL
T2 sequence (Q16531 whole entry partner): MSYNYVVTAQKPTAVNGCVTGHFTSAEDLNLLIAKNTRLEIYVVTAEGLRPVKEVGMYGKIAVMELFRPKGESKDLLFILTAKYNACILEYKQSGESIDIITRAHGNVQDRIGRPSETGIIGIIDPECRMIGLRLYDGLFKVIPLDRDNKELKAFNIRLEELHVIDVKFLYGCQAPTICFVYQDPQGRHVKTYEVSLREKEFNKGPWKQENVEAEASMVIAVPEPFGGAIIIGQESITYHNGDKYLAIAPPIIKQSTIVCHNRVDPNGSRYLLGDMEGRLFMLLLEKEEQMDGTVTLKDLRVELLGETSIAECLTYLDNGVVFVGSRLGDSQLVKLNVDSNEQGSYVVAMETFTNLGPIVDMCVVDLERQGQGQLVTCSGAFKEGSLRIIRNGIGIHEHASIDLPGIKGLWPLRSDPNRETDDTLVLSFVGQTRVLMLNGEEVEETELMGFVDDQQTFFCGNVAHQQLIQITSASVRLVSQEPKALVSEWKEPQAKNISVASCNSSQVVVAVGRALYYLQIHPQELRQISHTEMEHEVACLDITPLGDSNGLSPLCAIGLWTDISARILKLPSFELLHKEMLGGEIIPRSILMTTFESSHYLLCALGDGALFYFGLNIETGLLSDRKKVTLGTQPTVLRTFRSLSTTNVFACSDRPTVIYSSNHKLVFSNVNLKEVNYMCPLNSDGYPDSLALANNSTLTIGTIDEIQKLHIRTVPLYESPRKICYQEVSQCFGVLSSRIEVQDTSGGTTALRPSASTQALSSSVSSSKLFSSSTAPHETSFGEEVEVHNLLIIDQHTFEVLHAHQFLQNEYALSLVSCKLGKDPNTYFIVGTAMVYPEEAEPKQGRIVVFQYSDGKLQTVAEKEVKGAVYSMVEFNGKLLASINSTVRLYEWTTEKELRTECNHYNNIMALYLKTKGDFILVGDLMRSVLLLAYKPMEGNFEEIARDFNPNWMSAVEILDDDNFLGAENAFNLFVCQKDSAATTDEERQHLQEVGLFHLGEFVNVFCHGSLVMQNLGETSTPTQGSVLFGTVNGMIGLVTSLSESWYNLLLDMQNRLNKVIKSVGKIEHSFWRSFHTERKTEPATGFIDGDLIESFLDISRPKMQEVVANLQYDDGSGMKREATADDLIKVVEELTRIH
T5 sequence (P30291 whole entry): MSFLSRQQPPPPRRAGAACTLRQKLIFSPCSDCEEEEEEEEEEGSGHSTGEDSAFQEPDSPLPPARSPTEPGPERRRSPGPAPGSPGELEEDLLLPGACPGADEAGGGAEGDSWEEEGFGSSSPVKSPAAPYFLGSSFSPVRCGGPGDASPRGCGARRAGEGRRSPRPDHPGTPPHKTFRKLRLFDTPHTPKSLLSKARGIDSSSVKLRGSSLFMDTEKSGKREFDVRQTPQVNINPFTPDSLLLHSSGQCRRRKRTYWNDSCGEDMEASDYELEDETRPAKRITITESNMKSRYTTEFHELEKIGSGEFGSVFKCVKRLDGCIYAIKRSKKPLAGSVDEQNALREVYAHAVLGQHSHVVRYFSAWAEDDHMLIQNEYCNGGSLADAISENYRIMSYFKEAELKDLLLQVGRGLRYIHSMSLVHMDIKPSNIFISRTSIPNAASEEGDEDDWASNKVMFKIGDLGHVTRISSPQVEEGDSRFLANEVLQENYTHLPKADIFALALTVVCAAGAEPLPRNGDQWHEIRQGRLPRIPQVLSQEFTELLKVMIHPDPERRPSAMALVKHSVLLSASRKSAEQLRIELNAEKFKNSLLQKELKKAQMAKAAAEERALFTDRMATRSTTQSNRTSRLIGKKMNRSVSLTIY
T5 sequence (Q96SW2 whole entry): as the sequence (Q96SW2 whole entry) above
T5 sequence (Q16531 whole entry partner): as the sequence (Q16531 whole entry partner) above
T1 sequence (P48729 whole entry): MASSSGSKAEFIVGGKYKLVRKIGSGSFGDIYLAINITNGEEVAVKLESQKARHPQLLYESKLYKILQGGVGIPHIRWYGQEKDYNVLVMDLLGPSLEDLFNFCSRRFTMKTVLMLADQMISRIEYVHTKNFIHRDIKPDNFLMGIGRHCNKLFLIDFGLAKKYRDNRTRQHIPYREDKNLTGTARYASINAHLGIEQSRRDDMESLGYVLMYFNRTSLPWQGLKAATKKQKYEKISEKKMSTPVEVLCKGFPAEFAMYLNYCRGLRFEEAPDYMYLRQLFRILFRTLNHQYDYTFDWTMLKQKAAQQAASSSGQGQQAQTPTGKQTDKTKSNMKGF
T1 sequence (Q96SW2 whole entry): as the sequence (Q96SW2 whole entry) above
T1 sequence (Q16531 whole entry partner): as the sequence (Q16531 whole entry partner) above
T3 sequence (Q9UKS7 whole entry): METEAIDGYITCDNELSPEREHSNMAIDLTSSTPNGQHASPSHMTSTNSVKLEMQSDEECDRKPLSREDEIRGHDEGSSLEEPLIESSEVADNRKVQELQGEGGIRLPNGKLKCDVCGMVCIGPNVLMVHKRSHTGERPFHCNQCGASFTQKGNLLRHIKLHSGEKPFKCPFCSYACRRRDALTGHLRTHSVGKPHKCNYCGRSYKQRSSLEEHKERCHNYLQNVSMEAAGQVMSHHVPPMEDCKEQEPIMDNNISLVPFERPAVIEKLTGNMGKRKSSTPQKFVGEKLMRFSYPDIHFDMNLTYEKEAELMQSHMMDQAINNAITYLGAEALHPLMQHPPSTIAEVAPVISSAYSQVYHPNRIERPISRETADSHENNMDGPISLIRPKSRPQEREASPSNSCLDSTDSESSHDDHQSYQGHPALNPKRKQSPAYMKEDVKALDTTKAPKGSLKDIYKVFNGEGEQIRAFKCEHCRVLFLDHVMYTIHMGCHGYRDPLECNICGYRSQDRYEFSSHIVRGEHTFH
T3 sequence (Q96SW2 whole entry): as the sequence (Q96SW2 whole entry) above
T3 sequence (Q16531 whole entry partner): as the sequence (Q16531 whole entry partner) above
T4 sequence (Q9UKT9 whole entry): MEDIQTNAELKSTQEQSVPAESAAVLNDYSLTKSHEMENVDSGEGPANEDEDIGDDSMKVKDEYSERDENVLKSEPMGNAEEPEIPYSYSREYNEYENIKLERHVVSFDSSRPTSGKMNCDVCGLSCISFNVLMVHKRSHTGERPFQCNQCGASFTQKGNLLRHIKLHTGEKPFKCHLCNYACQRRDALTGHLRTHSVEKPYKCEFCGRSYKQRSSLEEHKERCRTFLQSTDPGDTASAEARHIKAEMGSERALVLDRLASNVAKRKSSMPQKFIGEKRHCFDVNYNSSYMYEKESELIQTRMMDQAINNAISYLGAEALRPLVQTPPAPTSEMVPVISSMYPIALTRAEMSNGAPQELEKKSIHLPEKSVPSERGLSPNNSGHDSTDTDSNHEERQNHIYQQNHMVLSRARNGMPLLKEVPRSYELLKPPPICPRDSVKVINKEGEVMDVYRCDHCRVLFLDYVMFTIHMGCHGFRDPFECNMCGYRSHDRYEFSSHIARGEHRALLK
T4 sequence (Q96SW2 whole entry): as the sequence (Q96SW2 whole entry) above
T4 sequence (Q16531 whole entry partner): as the sequence (Q16531 whole entry partner) above
T6 sequence (Q96SW2 whole entry): as the sequence (Q96SW2 whole entry) above

| Structure (SMILES) | CK1α substrate protein remaining % (CK1α; [4]) | IKZF 1 substrate protein remaining % (IKZF1; [4]) | IKZF2 substrate protein remaining % (IKZF2; [4]) | IKZF3 substrate protein remaining % (IKZF3; [4]) | Wee1 substrate protein remaining % (WEE1; [4]) | GSPT1 substrate protein remaining % (GSPT1; [4]) | inhibition at 0.5 µM [1] | inhibition at 2 µM [1] | inhibition at 0.01 µM [2] | inhibition at 0.5 µM [2] | inhibition at 0.01 µM [3] | inhibition at 0.5 µM [3] | CK1α substrate protein remaining % (CK1α; [5]) | IKZF 1 substrate protein remaining % (IKZF1; [5]) | IKZF2 substrate protein remaining % (IKZF2; [5]) | IKZF3 substrate protein remaining % (IKZF3; [5]) | Wee1 substrate protein remaining % (WEE1; [5]) | GSPT1 substrate protein remaining % (GSPT1; [5]) | Inhibition Rate at 500 nM (%) ([2]; MM.1S, 500 nM, 96 hours) |
| --- | --- | --- | --- | --- | --- | --- | --- | --- | --- | --- | --- | --- | --- | --- | --- | --- | --- | --- | --- |
| O=C1CCC(N2Cc3c(CN4C5CCC4CN(c4cccc(Cl)c4Cl)C5)cccc3C2=S)C(=O)N1 (centres unmarked) [GT-08471, 3-(4-((3-(2,3-dichlorophenyl)-3,8-diazabicyclo[3.2.1]octan-8-yl)methyl)-1-thioxoisoindolin-2-yl)piperidine-2,6-dione] | B (80%< substrate protein remaining %≤ 100%) | B (80%< substrate protein remaining %≤ 100%) | B (80%< substrate protein remaining %≤ 100%) | B (80%< substrate protein remaining %≤ 100%) | B (80%< substrate protein remaining %≤ 100%) | A (0% ≤ substrate protein remaining % ≤ 80%) | 30 to 40% | 60 to 80% | 40 to 50% | 40 to 50% | 40 to 60% | 40 to 60% |  |  |  |  |  |  |  |
| O=C1CCC(N2Cc3c(CN4CCN(c5ccc(Cl)cc5Cl)CC4)cccc3C2=S)C(=O)N1 (centres unmarked) [GT-08500, 3-(4-((4-(2,4-dichlorophenyl)piperazin-1-yl)methyl)-1-thioxoisoindolin-2-yl)piperidine-2,6-dione] | B (80%< substrate protein remaining %≤ 100%) | B (80%< substrate protein remaining %≤ 100%) | B (80%< substrate protein remaining %≤ 100%) | B (80%< substrate protein remaining %≤ 100%) | A (0% ≤ substrate protein remaining % ≤ 80%) | A (0% ≤ substrate protein remaining % ≤ 80%) | 40 to 53% | 60 to 80% |  |  | 30 to 40% | 40 to 60% |  |  |  |  |  |  |  |
| O=C1CCC(N2Cc3c(CN4CCN(c5ncnc6ccsc56)CC4)cccc3C2=S)C(=O)N1 (centres unmarked) [GT-08970, 3-(4-((4-(thieno[3,2-d]pyrimidin-4-yl)piperazin-1-yl)methyl)-1-thioxoisoindolin-2-yl)piperidine-2,6-dione] |  |  |  |  |  |  | 60 to 80% | 80 to 100% |  |  | 18 to 25% | 40 to 60% | B (80%< substrate protein remaining %≤ 100%) | B (80%< substrate protein remaining %≤ 100%) | B (80%< substrate protein remaining %≤ 100%) | B (80%< substrate protein remaining %≤ 100%) | A (0% ≤ substrate protein remaining % ≤ 80%) | B (80%< substrate protein remaining %≤ 100%) |  |
| O=C1CCC(N2Cc3c(CN4CCN(c5ccc(C(F)(F)F)cc5)CC4)cccc3C2=S)C(=O)N1 (centres unmarked) [GT-08262, 3-(1-thioxo-4-((4-(4-(trifluoromethyl)phenyl)piperazin-1-yl)methyl)isoindolin-2-yl)piperidine-2,6-dione] | A (0% ≤ substrate protein remaining % ≤ 80%) | B (80%< substrate protein remaining %≤ 100%) | B (80%< substrate protein remaining %≤ 100%) | B (80%< substrate protein remaining %≤ 100%) | A (0% ≤ substrate protein remaining % ≤ 80%) | A (0% ≤ substrate protein remaining % ≤ 80%) | 30 to 40% | 60 to 80% |  |  | 25 to 30% | 40 to 60% |  |  |  |  |  |  |  |
| O=C1CCC(N2Cc3c(CN4CCC(c5ccco5)CC4)cccc3C2=S)C(=O)N1 (centres unmarked) [GT-08310, 3-(4-((4-(furan-2-yl)piperidin-1-yl)methyl)-1-thioxoisoindolin-2-yl)piperidine-2,6-dione] |  |  |  |  |  |  | 30 to 40% | 60 to 80% |  |  | 40 to 60% | 60 to 80% | B (80%< substrate protein remaining %≤ 100%) | B (80%< substrate protein remaining %≤ 100%) | B (80%< substrate protein remaining %≤ 100%) | B (80%< substrate protein remaining %≤ 100%) | A (0% ≤ substrate protein remaining % ≤ 80%) | B (80%< substrate protein remaining %≤ 100%) |  |
| Cc1cccc(N2CCN(Cc3ccc4c(c3)CN(C3CCC(=O)NC3=O)C4=S)CC2)n1 (centres unmarked) [GT-09214, 3-(5-((4-(6-methylpyridin-2-yl)piperazin-1-yl)methyl)-1-thioxoisoindolin-2-yl)piperidine-2,6-dione] | B (80%< substrate protein remaining %≤ 100%) | B (80%< substrate protein remaining %≤ 100%) | B (80%< substrate protein remaining %≤ 100%) | B (80%< substrate protein remaining %≤ 100%) | B (80%< substrate protein remaining %≤ 100%) | A (0% ≤ substrate protein remaining % ≤ 80%) | 60 to 80% | 80 to 100% |  |  | 10 to 18% | 40 to 60% |  |  |  |  |  |  |  |
| Cc1cc(C2CCN(Cc3cccc4c3CN(C3CCC(=O)NC3=O)C4=S)CC2)cs1 (centres unmarked) [GT-08316, 3-(4-((4-(5-methylthiophen-3-yl)piperidin-1-yl)methyl)-1-thioxoisoindolin-2-yl)piperidine-2,6-dione] |  |  |  |  |  |  | 40 to 53% | 60 to 80% |  |  | 18 to 25% | 40 to 60% | B (80%< substrate protein remaining %≤ 100%) | B (80%< substrate protein remaining %≤ 100%) | B (80%< substrate protein remaining %≤ 100%) | B (80%< substrate protein remaining %≤ 100%) | A (0% ≤ substrate protein remaining % ≤ 80%) | B (80%< substrate protein remaining %≤ 100%) |  |
| O=C1CCC(N2Cc3cc(CN4CCN(c5cncc(Cl)c5Cl)CC4)ccc3C2=S)C(=O)N1 (centres unmarked) [GT-09231, 3-(5-((4-(4,5-dichloropyridin-3-yl)piperazin-1-yl)methyl)-1-thioxoisoindolin-2-yl)piperidine-2,6-dione] | A (0% ≤ substrate protein remaining % ≤ 80%) | A (0% ≤ substrate protein remaining % ≤ 80%) | A (0% ≤ substrate protein remaining % ≤ 80%) | A (0% ≤ substrate protein remaining % ≤ 80%) | B (80%< substrate protein remaining %≤ 100%) | A (0% ≤ substrate protein remaining % ≤ 80%) | 60 to 80% | 80 to 100% |  |  | 30 to 40% | 40 to 60% |  |  |  |  |  |  |  |
| O=C1CCC(N2Cc3cc(CN4CCN(c5c(F)c(F)nc(F)c5F)CC4)ccc3C2=S)C(=O)N1 (centres unmarked) [GT-09250, 3-(5-((4-(perfluoropyridin-4-yl)piperazin-1-yl)methyl)-1-thioxoisoindolin-2-yl)piperidine-2,6-dione] |  |  |  |  |  |  | 60 to 80% | 80 to 100% | 30 to 40% |  | 30 to 40% | 40 to 60% |  |  |  |  |  |  | la7 |
| O=C1CCC(N2Cc3c(CN4CC=C(c5cccc6c(F)cccc56)CC4)cccc3C2=S)C(=O)N1 (centres unmarked) [GT-08856, 3-(4-((4-(5-fluoronaphthalen-1-yl)-3,6-dihydropyridin-1(2H)-yl)methyl)-1-thioxoisoindolin-2-yl)piperidine-2,6-dione] |  |  |  |  |  |  | 30 to 40% | 53 to 60% | 20 to 30% | 40 to 50% | 40 to 60% | 40 to 60% |  |  |  |  |  |  |  |
| O=C1CCC(N2Cc3cc(CN4CCN(c5cccc(C(F)(F)F)n5)CC4)ccc3C2=S)C(=O)N1 (centres unmarked) [GT-09224, 3-(1-thioxo-5-((4-(6-(trifluoromethyl)pyridin-2-yl)piperazin-1-yl)methyl)isoindolin-2-yl)piperidine-2,6-dione] | A (0% ≤ substrate protein remaining % ≤ 80%) | B (80%< substrate protein remaining %≤ 100%) | B (80%< substrate protein remaining %≤ 100%) | A (0% ≤ substrate protein remaining % ≤ 80%) | B (80%< substrate protein remaining %≤ 100%) | A (0% ≤ substrate protein remaining % ≤ 80%) | 60 to 80% | 80 to 100% |  |  | -5 to 0% | 40 to 60% |  |  |  |  |  |  |  |
